Data as given in US11214594B2, “Antimicrobial peptide having synergistic antibacterial effect with antibiotics on multidrug resistant bacteria, and use thereof” (priority 2016, dated 2022).
Converted amounts (≈) assume the structure as drawn. Where a SMILES comes first, the peptide text is derived from it. [ ]: non-standard residue; d: D form.

How the values were obtained:
[1] = tested on: MDREC 1229; assay: microbe, parasite or virus in culture; type: cell-based, Escherichia coli; conditions: MDREC 1229
How it was run: (§1)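 Peptides were serially diluted twofold in Mueller-Hinton medium and combined 1:1 with bacterial suspensions prepared at 2×10^6 CFU. Readout was the minimal inhibitory concentration, i.e. the lowest concentration with no growth.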

[2] = tested on: E. coli; assay: microbe, parasite or virus in culture; type: cell-based, Escherichia coli; conditions: 16 h
How it was run: as §1

[3] = tested on: MDRAB 12035; type: cell-based, Acinetobacter baumannii
Procedure: (§2) A synergistic effect of a peptide and antibiotics was evaluated at antibacterial activity against a strain by using an MIC value determined for each mixed solution. For the evaluation, a fractional inhibitory concentration (FIC) value was used (Elion, Gertrude B., Samuel Singer, and George H. Hitchings. Journal of Biological Chemistry 208.2 (1954): 477-488.).
(§3) A method generally used to decide the synergistic effect by using the FIC values is a checkerboard assay, and is a method that selects the lowest FIC index value in a well in which the growth of bacteria is suppressed. However, the selection of one FIC index in the method has a problem in that when the antibacterial activity of the antibiotics is lower, the FIC index is calculated so as to have a big synergistic effect, and is not accurate and has many experimental errors. Thus, with respect to the FIC index calculated by [Equation 1], an average FIC index was again calculated by using the following [Equation 2] (He, Jing, Charles G. Starr, and William C. Wimley. Biochimica et Biophysica Acta (BBA)-Biomembranes 1848.1 (2015): 8-15.).

[4] = tested on: A. baumannii; type: cell-based, Acinetobacter baumannii
Procedure: as §2, §3

[5] = tested on: S. typhimurium; assay: microbe, parasite or virus in culture; type: cell-based, Salmonella typhimurium
How it was run: as §1

[6] = tested on: MRSA 3114; type: cell-based, Staphylococcus aureus; conditions: MRSA 3114; agent alone
How it was run: as §1

[7] = tested on: MRSA 3126; type: cell-based, Staphylococcus aureus; conditions: MRSA 3126; agent alone
How it was run: as §1

[8] = tested on: MDREC 1229; type: cell-based, Escherichia coli
Procedure: as §2, §3

[9] = tested on: E. coli; type: cell-based, Escherichia coli
Procedure: as §2, §3

[10] = tested on: MDREC 1229; assay: MIC of antibiotic during combined treatment with antimicrobial peptide; type: cell-based, Escherichia coli
How it was run: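 Broth microdilution in MH medium; strains were diluted to 2×10^6 CFU per ml before plating. Peptide was serially diluted stepwise at 2:1 starting from its MIC, and MH-diluted antibiotic was then added to determine MIC. The reversed arrangement was also tested.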

[11] = tested on: MDRPA 2003; type: cell-based, Pseudomonas aeruginosa; conditions: MDRPA 2003; agent alone
How it was run: as §1

[12] = tested on: MDRPA 2002; type: cell-based, Pseudomonas aeruginosa; conditions: MDRPA 2002; agent alone
How it was run: as §1

[13] = tested on: S. aureus; assay: microbe, parasite or virus in culture; type: cell-based, Staphylococcus aureus
How it was run: as §1

[14] = tested on: B. subtilis; assay: microbe, parasite or virus in culture; type: cell-based, Bacillus subtilis
How it was run: as §1

[15] = tested on: multi-drug resistant bacteria; assay: MIC, summary statements for multi-drug resistant bacteria; type: cell-based
How it was run: as §1

[16] = tested on: MDREC 1238; type: cell-based, Escherichia coli; conditions: MDREC 1238; agent alone
How it was run: as §1

[17] = tested on: MDRST 8009; type: cell-based, Salmonella typhimurium; conditions: agent alone
How it was run: as §1

[18] = tested on: MDRAB 12036; type: cell-based, Acinetobacter baumannii; conditions: MDRAB 12036; agent alone
How it was run: as §1

[19] = peptide combined with erythromycin
[20] = peptide combined with linezolid
[21] = peptide combined with vancomycin
[22] = peptide treatment concentration 1 μg/ml
[23] = peptide treatment concentration 2 μg/ml
[24] = peptide treatment concentration 4 μg/ml
[25] = peptide treatment concentration 6 μg/ml
[26] = peptide treatment concentration 8 μg/ml
[27] = peptide treatment concentration 16 μg/ml
[28] = peptide treatment concentration 32 μg/ml
[29] = peptide treatment concentration 64 μg/ml

Which results are given for `CC[C@H](C)[C@H](NC(=O)[C@H](CCCCN)NC(=O)[C@H](Cc1c[nH]c2ccccc12)NC(=O)[C@@H](N)CCCNC(=N)N)C(=O)N[C@@H](Cc1ccccc1)C(=O)N[C@@H](CCCCN)C(=O)N[C@@H](CCCCN)C(=O)N[C@H](C(=O)N[C@H](CC(C)C)C(=O)N[C@@H](CCCCN)C(=O)N[C@@H](CC(C)C)C(=O)N[C@@H](CC(C)C)C(=O)N[C@@H](Cc1c[nH]cn1)C(=O)N[C@@H](CCCCN)C(=O)N[C@@H](Cc1ccccc1)C(=O)N[C@@H](CCCCN)C(=O)N[C@@H](CCCCN)C(=O)N[C@@H](Cc1ccccc1)C(N)=O)[C@@H](C)CC` [PapMA-21, RWK IFK KIl KLL HKF KKF-NH2] (H-RWKIFKKI[dL]KLLHKFKKF-NH2; N-terminus assumed)?
Minimal inhibitory concentration MIC ([1]; agent alone): 32 µg/mL (≈ 13.3 µM); Peptide MIC, peptide alone ([1]; peptide alone, no antibiotic): 32 µg/mL; Minimal inhibitory concentration MIC [2]: 32 µg/mL (≈ 13.3 µM); Average FIC index, Erythromycin [3, 19]: 0.49; Average FIC index, Linezolid [3, 20]: 0.22; Average FIC index, Vancomycin [3, 21]: 0.17; Average FIC index, Erythromycin [4, 19]: 0.40; Average FIC index, Linezolid [4, 20]: 0.35; Average FIC index, Vancomycin [4, 21]: 0.11; Minimal inhibitory concentration MIC [5]: 32 µg/mL (≈ 13.3 µM); Minimal inhibitory concentration MIC [6]: >128 µg/mL; Minimal inhibitory concentration MIC [7]: >128 µg/mL; Average FIC index, Erythromycin [8, 19]: 0.15; Average FIC index, Linezolid [8, 20]: 0.28; Average FIC index, Vancomycin [8, 21]: 0.26; Average FIC index, Erythromycin [9, 19]: 0.15; Average FIC index, Linezolid [9, 20]: 0.35; Average FIC index, Vancomycin [9, 21]: 0.21; Antibiotic MIC, Erythromycin [10, 22]: 128 µg/mL; Antibiotic MIC, Linezolid [10, 22]: >128 µg/mL; Antibiotic MIC, Vancomycin [10, 22]: >128 µg/mL; Antibiotic MIC, Erythromycin [10, 23]: 64 µg/mL; Antibiotic MIC, Linezolid [10, 23]: >128 µg/mL; Antibiotic MIC, Vancomycin [10, 23]: >128 µg/mL; Antibiotic MIC, Erythromycin [10, 24]: 32 µg/mL; Antibiotic MIC, Linezolid [10, 24]: 128 µg/mL; Antibiotic MIC, Vancomycin [10, 24]: >128 µg/mL; Antibiotic MIC, Erythromycin [10, 25]: 8 µg/mL; Antibiotic MIC, Linezolid [10, 25]: 64 µg/mL; Antibiotic MIC, Vancomycin [10, 25]: >128 µg/mL; Antibiotic MIC, Erythromycin [10, 26]: 4 µg/mL; Antibiotic MIC, Linezolid [10, 26]: 32 µg/mL; Antibiotic MIC, Vancomycin [10, 26]: 128 µg/mL; Antibiotic MIC, Erythromycin [10, 27]: 2 µg/mL; Antibiotic MIC, Linezolid [10, 27]: 16 µg/mL; Antibiotic MIC, Vancomycin [10, 27]: 16 µg/mL; Antibiotic MIC, Erythromycin [10, 28]: 0 µg/mL; Antibiotic MIC, Linezolid [10, 28]: 0 µg/mL; Antibiotic MIC, Vancomycin [10, 28]: 0 µg/mL; Antibiotic MIC, Erythromycin [10, 29]: 0 µg/mL; Antibiotic MIC, Linezolid [10, 29]: 0 µg/mL; Antibiotic MIC, Vancomycin [10, 29]: 0 µg/mL; Minimal inhibitory concentration MIC [11]: 32 µg/mL (≈ 13.3 µM); Minimal inhibitory concentration MIC [12]: 32 µg/mL (≈ 13.3 µM); Minimal inhibitory concentration MIC [13]: >128 µg/mL; Minimal inhibitory concentration MIC [14]: >128 µg/mL; Antibacterial activity relative to PapMA-1 [15]: twice to four times higher; Minimal inhibitory concentration MIC [16]: 32 µg/mL (≈ 13.3 µM); Minimal inhibitory concentration MIC [17]: 32 µg/mL (≈ 13.3 µM); Minimal inhibitory concentration MIC [18]: 32 µg/mL (≈ 13.3 µM)
